Experimental data reported in PubChem BioAssay (NCI).
“And” between values parts separate entries of the source, which are not always exact repeats. Equal entries are not always repeated.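 Cells were grown in 96-well plates and exposed to each compound for 48 hours at five concentrations; endpoints were interpolated linearly between bracketing concentrations, or set to the highest concentration if not reached. GI50 is the concentration that inhibits growth by half. The concentration for full growth arrest is given as TGI.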

Assays:
Assay in all cases: NCI-60 cell line screen, 48 h
[1] = test system: A498 renal
[2] = test system: MALME-3M melanoma
[3] = test system: A549 NSCLC
[4] = test system: CAKI-1 renal
[5] = test system: NCI-H23 lung
[6] = test system: SNB-75 CNS
[7] = test system: SF-268 CNS
[8] = test system: HCC-2998 colon
[9] = test system: KM12 colon
[10] = test system: LOX IMVI melanoma

| SMILES | TGI [1] | TGI [2] | TGI [3] | TGI [4] | TGI [5] | TGI [6] | TGI [7] | TGI [8] | GI50 [1] | GI50 [2] | GI50 [3] | GI50 [9] | TGI [9] | GI50 [10] | TGI [10] | GI50 [4] | GI50 [5] | GI50 [6] | GI50 [7] | GI50 [8] |
| --- | --- | --- | --- | --- | --- | --- | --- | --- | --- | --- | --- | --- | --- | --- | --- | --- | --- | --- | --- | --- |
| Clc1cccc(C2N3CCCCC3[C@@H]3c4[nH]c5ccccc5c4CCN23)c1 (stereo partly specified) | 77.3 µM | 42.2 µM | > 100 µM | > 100 µM | 45 µM | 85.4 µM | > 100 µM | 99.7 µM | – | – | – | – | – | – | – | – | – | – | – | – |
| O=C(O)C1[O][Sb][O]C(C(=O)O)C1O (stereo unspecified) | > 100 µM | > 100 µM | > 100 µM | > 100 µM | > 100 µM | > 100 µM | > 100 µM | – | > 100 µM | > 100 µM | > 100 µM | > 100 µM | > 100 µM | > 100 µM | > 100 µM | > 100 µM | > 100 µM | > 100 µM | > 100 µM | – |
| COc1ccc(OC)c(/C=N/N=C(\N)NO)c1 | – | > 100 µM | > 100 µM | 71.4 µM | > 100 µM | > 100 µM | > 100 µM | – | – | – | – | – | > 100 µM | – | > 100 µM | – | – | – | – | – |
| NS(=O)(=O)c1cc(C(=O)O)c(O)c2ccccc12 | > 100 µM | > 100 µM | > 100 µM | > 100 µM | > 100 µM | > 100 µM | > 100 µM | – | – | – | – | – | > 100 µM | – | > 100 µM | – | – | – | – | – |
| COC1(OC)C2(Cl)C(Cl)=C(Cl)C1(Cl)C1C2C2CC1(C(=O)O)c1ccccc12 (stereo unspecified) | > 100 µM | 32.1 µM | > 100 µM | 83.1 µM | 28.4 µM | – | 55.8 µM | 50.7 µM | – | – | – | – | – | – | 32 µM | – | – | – | – | – |
| COc1ccc([C@@]23Oc4cc(OC)cc(OC)c4[C@]2(O)[C@H](O)[C@H](C(N)=O)[C@H]3c2ccccc2)cc1 | < 0.0215 µM | 0.0909 µM and < 0.01 µM | – | 0.0838 µM | 0.0769 µM and 0.0157 µM | 0.119 µM | 0.0913 µM and < 0.01 µM | 0.0697 µM and 0.0194 µM | < 0.013 µM | 0.0161 µM | – | – | 0.0999 µM | – | – | – | – | < 0.01 µM | < 0.0113 µM | – |
| O=C(Nc1ccc(Cl)cc1Cl)OC(Cn1cncn1)c1ccc(Cl)cc1Cl (stereo unspecified) | 34.2 µM | 29.3 µM | 33 µM | – | 28.4 µM | 30.1 µM | 31.9 µM | – | – | – | – | – | 31 µM | – | 29.9 µM | – | – | – | – | – |
| CCNC(=O)OCc1c(COC(=O)NCC)c(-c2ccc(Cl)c(Cl)c2)n2c1CCC2 | – | 30.7 µM | 82.3 µM | 14.6 µM | 26.3 µM | 27.7 µM | 32.8 µM | 27.7 µM | – | – | – | – | 59 µM | – | – | – | – | – | – | – |
| CC(=O)[CH-]C(=O)c1ccccc1.CC(=O)[CH-]C(=O)c1ccccc1.CC(=O)[CH-]C(=O)c1ccccc1.[Nd+3].[OH3+] | > 100 µM | 94.4 µM | > 100 µM | > 100 µM | > 100 µM | 43.4 µM | > 100 µM | > 100 µM | > 100 µM | 27.2 µM | > 100 µM | 13.4 µM | > 100 µM | – | – | 61 µM | 37.8 µM | 6.66 µM | 41.3 µM | 85.7 µM |
| C=CCC(N[C@@H](CO)c1ccccc1)c1cn(C(=O)OCC)c2ccccc12 (stereo partly specified) | 61.6 µM | 39.1 µM | > 100 µM | 53.5 µM | 49.6 µM | – | 54.5 µM | 31.8 µM | 25.9 µM | 17.1 µM | 34.7 µM | 15.2 µM | 33.6 µM | 16.7 µM | 32.2 µM | 13.6 µM | 20.5 µM | – | 23 µM | 16.3 µM |
| Cn1cc2ccccc2c1-c1nc(F)nc(Oc2ccc3c(c2)CC[C@@H]2C3CC[C@@]3(C)C2C[C@H](O)[C@@H]3O)n1 (stereo partly specified) | 47 µM | 75.4 µM | 34.1 µM | 34.8 µM | 42.9 µM | 41.1 µM | 36.8 µM | 29.9 µM | – | – | – | – | 36.1 µM | – | – | – | – | – | – | – |
| Nc1nc(/C=C\c2ccccc2)nc(N2CCN(c3ccccc3)CC2)n1 | 87.9 µM | – | > 100 µM | 43.6 µM | – | 69.4 µM | > 100 µM | 41.5 µM | 35.1 µM | – | 31.5 µM | 27.2 µM | 60.6 µM | 19 µM | 40.6 µM | 15.6 µM | – | 22.2 µM | 42.2 µM | 17.9 µM |
| O=C(/C=C\c1cccc2ccccc12)c1ccc(Cl)cc1Cl | > 100 µM | 65.6 µM | > 100 µM | > 100 µM | > 100 µM | > 100 µM | 51.9 µM | 92 µM | – | – | – | – | 31 µM | – | – | – | – | – | – | – |
| N#CC(C(=O)/C(=N\NC(N)=O)C(C#N)c1ccccc1)c1ccccc1 (stereo unspecified) | > 100 µM | > 100 µM | > 100 µM | > 100 µM | > 100 µM | > 100 µM | > 100 µM | > 100 µM | – | – | – | – | > 100 µM | – | – | – | – | – | – | – |
| COC(=O)[C@@]12CC(C(C)C)[C@H]3CC(C(=O)C=C1OC)[C@H]32 (stereo partly specified) | > 100 µM | > 100 µM | > 100 µM | > 100 µM | > 100 µM | > 100 µM | > 100 µM | > 100 µM | – | – | – | – | > 100 µM | – | – | – | – | – | – | – |
| CC(C)CCCCCCCCCCCCC(=O)NCC(=O)NC1C(O)C(O)C(Nc2ncnc3nc[nH]c23)OC1C(O)CO (stereo unspecified) | 0.0123 µM and 0.0132 µM | 0.0125 µM and 0.00724 µM | 0.00787 µM and 0.0537 µM and 0.0327 µM | 0.0011 µM and 0.000619 µM | 0.0354 µM and 0.0371 µM | – | – | – | 0.005 µM | – | – | – | 0.0479 µM and 0.0235 µM | – | – | < 1e-05 µM | 0.005 µM | < 1e-05 µM | – | < 1e-05 µM |
| O=C(Nc1ccc(Cl)c(Cl)c1)C(=O)C(C(=O)c1ccccc1-c1ccccc1)C1OC(=O)c2ccccc21 (stereo unspecified) | 65.5 µM | – | 63.2 µM | – | 24.6 µM | 41.3 µM | 72.2 µM | 27.6 µM | – | – | – | – | 43.2 µM | – | 28.9 µM | – | – | – | – | – |
| C/C(=C(\c1ccc(OCCN2CCCCCC2)cc1)c1ccc(OC(=O)c2ccccc2)cc1)c1ccc(Cl)cc1 | 8.09 µM | 8.72 µM | 10.9 µM | 9.27 µM | 11 µM | – | 9.7 µM | 7.03 µM | 3.79 µM | 3.6 µM | 4.16 µM | 3.14 µM | 8.72 µM | 2.43 µM | 6.81 µM | 3.86 µM | 4.73 µM | – | 3.49 µM | 2.36 µM |
| CCOc1ccccc1N=Nc1c(-c2ccccc2)nn(C(=O)CC(=O)Nc2cccc(C)c2)c1-c1ccccc1 | – | > 100 µM | > 100 µM | > 100 µM | > 100 µM | > 100 µM | > 100 µM | > 100 µM | – | – | – | – | > 100 µM | – | > 100 µM | – | – | – | – | – |
| O=C(c1ccc(Cl)cc1)c1ccc(OCCCOc2ccc(C(=O)c3ccc(Cl)cc3)cc2Cl)c(Cl)c1 | – | > 100 µM | > 100 µM | > 100 µM | > 100 µM | > 100 µM | – | > 100 µM | – | – | – | – | > 100 µM | – | > 100 µM | – | – | – | – | – |
| NC1=NN(c2ccccc2)C(=O)C1C(=O)C(=O)Nc1ccc(Cl)c(Cl)c1 (stereo unspecified) | > 100 µM | > 100 µM | > 100 µM | > 100 µM | > 100 µM | 85 µM | > 100 µM | > 100 µM | – | – | – | – | > 100 µM | – | – | – | – | – | – | – |
| CC1NC(=O)C2=C1C(=O)NC(=O)C2 (stereo unspecified) | > 100 µM | – | > 100 µM | > 100 µM | > 100 µM | – | > 100 µM | > 100 µM | > 100 µM | – | > 100 µM | > 100 µM | > 100 µM | > 100 µM | > 100 µM | > 100 µM | > 100 µM | – | > 100 µM | > 100 µM |
| Cc1cc(C)c(-c2noc(-c3ccc(Cl)cc3)c2C2=NCCCN2)c(C)c1 | – | 36.8 µM | > 100 µM | > 100 µM | 40.1 µM | – | 49.6 µM | 43.6 µM | – | – | – | – | > 100 µM | – | 37.1 µM | – | – | – | – | – |
| Cc1nc2c(o1)C(=Nc1ccccc1)c1nc(C)oc1C2=Nc1ccccc1 | 3.01 µM | 41.6 µM | 54.1 µM | – | 63.7 µM | 28.6 µM | 47.9 µM | 80.3 µM | – | – | – | – | – | – | 60.4 µM | – | – | – | – | – |
| COc1cccc(Nc2nc3ccccc3c3occc23)c1 | – | – | 22.4 µM | 15.6 µM | 22.6 µM | – | 34.1 µM | 21.8 µM | – | – | 6.01 µM | 3.13 µM | 10.7 µM | 2.32 µM | 8.39 µM | 4.19 µM | 10.2 µM | – | 13.9 µM | 8.9 µM |
| Clc1cccc(-c2nnc(-c3nn(-c4ccccc4)c4nc5ccccc5nc34)o2)c1 | – | > 100 µM | > 100 µM | > 100 µM | > 100 µM | > 100 µM | > 100 µM | > 100 µM | – | – | – | – | > 100 µM | – | > 100 µM | – | – | – | – | – |
| Cc1cc(=O)n(-c2cc3cccccc-3n2)[nH]1 | 46.9 µM | 9.84 µM | > 100 µM | – | 47.4 µM | 31.7 µM | – | 48.7 µM | – | – | – | – | 91.5 µM | – | > 100 µM | – | – | – | – | – |
| N/N=C(/Cc1nc2ccc(C(=O)c3ccccc3)cc2[nH]c1=O)C(=O)Nc1ccc([N+](=O)[O-])cc1[N+](=O)[O-] | > 100 µM | > 100 µM | > 100 µM | > 100 µM | > 100 µM | – | > 100 µM | > 100 µM | > 100 µM | – | > 100 µM | – | > 100 µM | > 100 µM | > 100 µM | – | > 100 µM | – | > 100 µM | > 100 µM |
| CC1=CC(C)(C)NN1C1=NS(=O)(=O)c2ccccc2N1C | > 100 µM | – | > 100 µM | > 100 µM | > 100 µM | – | > 100 µM | > 100 µM | – | – | – | – | > 100 µM | – | > 100 µM | – | – | – | – | – |
